Source: patent US11980598B2, “N-(2-(substituted-naphth-1-yl)ethyl) substituted amide compound, preparation and uses thereof” (BEIJING GREATWAY PHARMACEUTICAL TECHNOLOGY CO., LTD., priority 2017, dated 2024)

Test system: SD rats
Test: Anxiety behavior model of repeatedly administrated rat: Vogel drinking conflict test
Type: in vivo
Conditions: D18, within 3 minutes
Procedure: The requirements for test animals, drug formulation and administration were the same as those of the rat chronic mild stress model.
Instruments: Vogel drinking anxiety device for rat and O-maze device for rat were manufactured by Shanghai XinRuan Company. The rat feeding chamber was a home-made white plastic box (60×45×25 cm).
The rats were administrated continuously by i.g. once a day. A novelty-suppressed feeding test, a Vogel drinking conflict test, and an O-maze test were performed on a different day, respectively. Each behavior test was performed at 9:00-12:00, and the administration time was 16:00-17:00. The test process was as follows: D12, novelty-suppressed feeding test (animals were fasted for 48 hours before the test); D18, Vogel drinking conflict test (animals were banned from water for 48 hours before the test); D21, O-maze test.
The Vogel drinking anxiety device for rat connected a drinking tube of a water bottle, an electric grid and a current loop of a controller through the animal body when rat drank water. The controller can automatically record the number of times the animal drank water and can deliver an electric shock to foot sole. The rat was individually placed in the test chamber after 48 hours of water deprivation. When the animal drank 20 times in the test chamber, the controller started timing for 3 minutes, and every 20 times the rat drank, one electric shock to foot sole was delivered (0.35 mA for 2 s). The device automatically recorded the number of times the rat drank water with electric shock within 3 minutes.

[2H]C([2H])([2H])Oc1cc2c(CCNC(C)=O)cccc2cc1Cl [Example 1, N-(2-(6-chloro-7-deuteromethoxy-naphthalen-1-yl)ethyl)acetamide]
Number of times drinking water with electric shock (s) (5 mg/kg i.g. once a day): 76 ± 11 number of licks (count) | Number of times drinking water with electric shock (s) (10 mg/kg i.g. once a day): 159 ± 14 number of licks (count) | Number of times drinking water with electric shock (s) (20 mg/kg i.g. once a day): 172 ± 25 number of licks (count) | Number of times drinking water with electric shock (s) (40 mg/kg i.g. once a day): 213 ± 20 number of licks (count)
